Measurements published in ChEMBL document CHEMBL4028827, “Discovery of indazole aldosterone synthase (CYP11B2) inhibitors as potential treatments for hypertension” (Bioorg Med Chem Lett, 2017).

Legend:
Cytochrome P450 2C9 = Cytochrome P450 2C9 (Homo sapiens, UniProt P11712); experiment: Inhibition of hepatic CYP2C9 (unknown origin); format: ADME
[1] = molecular target: T1, Cytochrome P450 11B1, mitochondrial (Homo sapiens, UniProt P15538); experiment: Inhibition of human CYP11B1-8C7 expressed in Chinese hamster V79 cells using 11-deoxycortisol as substrate preincubated for 1 hr followed by substrate addition measured for 3 hrs by HTRF assay; format: ADME, cell-based
T1 sequence (P15538 whole entry): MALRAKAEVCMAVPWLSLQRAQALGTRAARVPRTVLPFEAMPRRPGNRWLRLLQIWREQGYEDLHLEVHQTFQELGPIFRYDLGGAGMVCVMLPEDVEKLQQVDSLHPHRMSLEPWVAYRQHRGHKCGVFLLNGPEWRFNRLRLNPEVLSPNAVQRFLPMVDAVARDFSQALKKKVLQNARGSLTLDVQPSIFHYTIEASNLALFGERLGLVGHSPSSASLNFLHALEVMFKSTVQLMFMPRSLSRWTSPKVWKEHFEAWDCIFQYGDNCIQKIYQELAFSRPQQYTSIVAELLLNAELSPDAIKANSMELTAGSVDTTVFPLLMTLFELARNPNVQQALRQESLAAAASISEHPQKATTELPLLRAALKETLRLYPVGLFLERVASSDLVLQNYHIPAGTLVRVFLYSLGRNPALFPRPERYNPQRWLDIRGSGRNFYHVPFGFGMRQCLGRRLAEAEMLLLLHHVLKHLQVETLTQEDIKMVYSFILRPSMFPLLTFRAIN

Aromatase = molecular target: T2, Aromatase (Homo sapiens, UniProt P11511); experiment: Inhibition of CYP19 (unknown origin) using MFC as substrate and NADPH as cofactor preincubated for 10 mins with cofactor followed by substrate/enzyme addition measured after 30 mins
T2 sequence (P11511 whole entry): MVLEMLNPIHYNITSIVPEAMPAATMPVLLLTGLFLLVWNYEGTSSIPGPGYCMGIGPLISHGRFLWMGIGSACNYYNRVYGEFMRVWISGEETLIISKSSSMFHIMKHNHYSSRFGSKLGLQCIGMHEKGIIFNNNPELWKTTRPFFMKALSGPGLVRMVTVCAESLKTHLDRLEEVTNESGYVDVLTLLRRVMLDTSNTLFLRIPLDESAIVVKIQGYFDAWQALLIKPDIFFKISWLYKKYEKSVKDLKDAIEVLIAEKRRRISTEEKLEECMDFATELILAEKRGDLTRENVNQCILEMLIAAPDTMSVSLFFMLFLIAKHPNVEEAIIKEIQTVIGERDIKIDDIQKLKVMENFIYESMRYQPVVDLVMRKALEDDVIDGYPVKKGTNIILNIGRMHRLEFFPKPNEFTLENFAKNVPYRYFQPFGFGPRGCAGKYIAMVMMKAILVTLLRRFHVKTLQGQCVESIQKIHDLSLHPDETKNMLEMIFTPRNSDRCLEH

[2] = Half life in Sprague-Dawley rat at 1 mg/kg, iv or 2 mg/kg, po administered via gavage by LC-MS/MS analysis; format: ADME, organism-based; conditions: in vivo
[3] = Plasma clearance in Sprague-Dawley rat at 1 mg/kg, iv or 2 mg/kg, po administered via gavage by LC-MS/MS analysis; format: ADME, organism-based
[4] = Intrinsic clearance in rat liver microsomes at […] preincubated for 10 mins followed by NADPH addition measured after 45 mins by LC-MS analysis; format: ADME, microsome; conditions: read-out: CLH

Cytochrome P450 2C9, sequence (P11712 whole entry): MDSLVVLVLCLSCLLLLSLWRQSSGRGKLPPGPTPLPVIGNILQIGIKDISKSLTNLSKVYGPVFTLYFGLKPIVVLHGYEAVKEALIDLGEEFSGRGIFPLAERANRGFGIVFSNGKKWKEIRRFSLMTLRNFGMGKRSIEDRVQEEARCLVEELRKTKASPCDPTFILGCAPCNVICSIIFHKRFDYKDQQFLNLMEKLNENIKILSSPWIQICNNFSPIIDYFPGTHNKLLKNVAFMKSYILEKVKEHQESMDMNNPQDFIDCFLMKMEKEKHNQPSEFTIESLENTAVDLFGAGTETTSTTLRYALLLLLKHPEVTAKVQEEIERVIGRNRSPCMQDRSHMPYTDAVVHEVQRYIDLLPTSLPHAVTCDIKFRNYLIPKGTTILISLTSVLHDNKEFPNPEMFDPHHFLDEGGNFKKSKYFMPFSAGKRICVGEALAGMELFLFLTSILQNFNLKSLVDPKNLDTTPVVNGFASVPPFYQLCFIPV

IC50 (Cytochrome P450 2C9): 9.1 µM
IC50 [1]: 0.098 to 0.0983 µM
IC50 (Aromatase): 4.6 µM
half-life [2]: 7.6 h
clearance [3]: 14 mL/min/kg
CLint scaled [4]: < 20 mL/min/kg
SMILES: CC(C)(O)c1cncc(-n2ncc3c(C(F)(F)F)cccc32)c1
